Legend:
[1] = Half life in rat at 4 mg/kg, iv; type: ADME, organism-based; conditions: in vivo
[2] = Tmax in rat at 10 mg/kg, po; type: ADME, organism-based; conditions: in vivo
[3] = Volume of distribution at steady state in rat at 4 mg/kg, iv; type: ADME, organism-based; conditions: in vivo, read-out: Vdss
[4] = Clearance in rat at 4 mg/kg, iv; type: ADME, organism-based; conditions: in vivo
[5] = Dose normalized AUC in rat at 4 mg/kg, iv; type: ADME, organism-based; conditions: in vivo
[6] = Oral bioavailability in rat at 10 mg/kg; type: ADME, organism-based; conditions: in vivo
[7] = Cmax in rat at 10 mg/kg, po; type: ADME, organism-based; design: route oral, dose 10 mg/kg; conditions: in vivo
[8] = Dose normalized AUC in dog at 1 mg/kg, iv; type: ADME, organism-based, Canis lupus familiaris; conditions: in vivo
[9] = Cmax in rat at 5 mg/kg, po; type: ADME, organism-based; design: route oral, dose 5 mg/kg; conditions: in vivo
[10] = Clearance in rat at 2 mg/kg, iv; type: ADME, organism-based; conditions: in vivo
[11] = Dose normalized AUC in rat at 2 mg/kg, iv; type: ADME, organism-based; conditions: in vivo
[12] = Tmax in dog at 2 mg/kg, po; type: ADME, organism-based, Canis lupus familiaris; conditions: in vivo
[13] = Cmax in dog at 2 mg/kg, po; type: ADME, organism-based, Canis lupus familiaris; design: route oral, dose 2 mg/kg; conditions: in vivo
[14] = Volume of distribution at steady state in rat at 2 mg/kg, iv; type: ADME, organism-based; conditions: in vivo, read-out: Vdss
[15] = Clearance in dog at 1 mg/kg, iv; type: ADME, organism-based, Canis lupus familiaris; conditions: in vivo
[16] = Tmax in rat at 5 mg/kg, po; type: ADME, organism-based; conditions: in vivo
[17] = Half life in dog at 1 mg/kg, iv; type: ADME, organism-based, Canis lupus familiaris; conditions: in vivo
[18] = Volume of distribution at steady state in dog at 1 mg/kg, iv; type: ADME, organism-based, Canis lupus familiaris; conditions: in vivo, read-out: Vdss
[19] = Oral bioavailability in dog at 2 mg/kg; type: ADME, organism-based, Canis lupus familiaris; conditions: in vivo
[20] = Half life in rat at 2 mg/kg, iv; type: ADME, organism-based; conditions: in vivo
[21] = Oral bioavailability in rat at 5 mg/kg; type: ADME, organism-based; conditions: in vivo
[22] = target: Receptor tyrosine-protein kinase erbB-4 (Homo sapiens, UniProt Q15303); assay: Inhibition of human ERBB4
[23] = target: Tyrosine-protein kinase Lyn (Homo sapiens, UniProt P07948); assay: Inhibition of human LYNB
Sequence of Tyrosine-protein kinase Lyn (P07948 whole entry): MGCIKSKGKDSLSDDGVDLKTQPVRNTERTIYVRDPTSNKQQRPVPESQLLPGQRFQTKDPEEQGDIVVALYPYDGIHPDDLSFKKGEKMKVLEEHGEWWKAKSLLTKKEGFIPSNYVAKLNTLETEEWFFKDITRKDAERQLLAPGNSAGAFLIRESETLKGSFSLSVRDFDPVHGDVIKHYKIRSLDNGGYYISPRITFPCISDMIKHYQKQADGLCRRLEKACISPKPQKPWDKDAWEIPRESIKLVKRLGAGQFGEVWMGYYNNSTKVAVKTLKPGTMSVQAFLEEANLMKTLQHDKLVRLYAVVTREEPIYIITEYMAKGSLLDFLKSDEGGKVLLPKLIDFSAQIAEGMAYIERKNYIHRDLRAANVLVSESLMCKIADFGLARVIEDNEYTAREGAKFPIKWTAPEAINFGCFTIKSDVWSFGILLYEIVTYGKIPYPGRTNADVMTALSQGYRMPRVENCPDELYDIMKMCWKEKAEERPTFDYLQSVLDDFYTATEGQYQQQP

[24] = target: T1, Tyrosine-protein kinase TXK (Homo sapiens, UniProt P42681); assay: Inhibition of human TXK
T1 sequence (P42681 whole entry): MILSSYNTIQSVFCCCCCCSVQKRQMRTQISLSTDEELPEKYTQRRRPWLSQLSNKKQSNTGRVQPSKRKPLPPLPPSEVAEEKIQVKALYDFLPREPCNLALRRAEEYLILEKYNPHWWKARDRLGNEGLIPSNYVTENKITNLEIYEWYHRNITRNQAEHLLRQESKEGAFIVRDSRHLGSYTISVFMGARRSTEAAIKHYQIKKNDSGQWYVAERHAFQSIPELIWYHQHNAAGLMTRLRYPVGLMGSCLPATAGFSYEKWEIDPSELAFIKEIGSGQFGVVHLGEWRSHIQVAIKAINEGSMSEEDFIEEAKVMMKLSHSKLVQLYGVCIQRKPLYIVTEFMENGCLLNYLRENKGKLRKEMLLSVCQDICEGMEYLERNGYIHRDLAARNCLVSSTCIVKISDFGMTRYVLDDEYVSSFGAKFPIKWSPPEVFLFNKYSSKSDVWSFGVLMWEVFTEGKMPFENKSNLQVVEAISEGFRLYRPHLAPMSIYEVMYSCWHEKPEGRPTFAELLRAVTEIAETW

[25] = target: T2, Cytoplasmic tyrosine-protein kinase BMX (Homo sapiens, UniProt P51813); assay: Inhibition of human BMX
T2 sequence (P51813 whole entry): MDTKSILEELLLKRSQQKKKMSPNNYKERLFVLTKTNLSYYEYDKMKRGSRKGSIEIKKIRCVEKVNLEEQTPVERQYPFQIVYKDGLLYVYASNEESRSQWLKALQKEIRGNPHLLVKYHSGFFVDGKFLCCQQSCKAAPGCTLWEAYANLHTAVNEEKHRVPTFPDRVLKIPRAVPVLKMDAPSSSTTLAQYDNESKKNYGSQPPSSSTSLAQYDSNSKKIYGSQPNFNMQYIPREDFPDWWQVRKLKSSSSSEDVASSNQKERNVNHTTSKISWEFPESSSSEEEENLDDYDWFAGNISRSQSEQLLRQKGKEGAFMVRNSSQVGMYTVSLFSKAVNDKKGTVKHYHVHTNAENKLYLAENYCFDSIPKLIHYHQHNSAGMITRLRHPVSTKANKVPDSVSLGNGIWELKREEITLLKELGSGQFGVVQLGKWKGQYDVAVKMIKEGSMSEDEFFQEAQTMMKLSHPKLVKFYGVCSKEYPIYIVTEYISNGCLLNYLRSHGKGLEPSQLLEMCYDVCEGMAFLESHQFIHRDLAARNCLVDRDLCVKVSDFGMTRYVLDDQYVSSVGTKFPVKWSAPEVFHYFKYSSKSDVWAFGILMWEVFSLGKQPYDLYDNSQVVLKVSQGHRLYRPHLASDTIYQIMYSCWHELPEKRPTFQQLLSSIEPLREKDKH

[26] = target: Proto-oncogene tyrosine-protein kinase Src (Homo sapiens, UniProt P12931); assay: Inhibition of human SRC
Sequence of Proto-oncogene tyrosine-protein kinase Src (P12931 2-536 limits assumed): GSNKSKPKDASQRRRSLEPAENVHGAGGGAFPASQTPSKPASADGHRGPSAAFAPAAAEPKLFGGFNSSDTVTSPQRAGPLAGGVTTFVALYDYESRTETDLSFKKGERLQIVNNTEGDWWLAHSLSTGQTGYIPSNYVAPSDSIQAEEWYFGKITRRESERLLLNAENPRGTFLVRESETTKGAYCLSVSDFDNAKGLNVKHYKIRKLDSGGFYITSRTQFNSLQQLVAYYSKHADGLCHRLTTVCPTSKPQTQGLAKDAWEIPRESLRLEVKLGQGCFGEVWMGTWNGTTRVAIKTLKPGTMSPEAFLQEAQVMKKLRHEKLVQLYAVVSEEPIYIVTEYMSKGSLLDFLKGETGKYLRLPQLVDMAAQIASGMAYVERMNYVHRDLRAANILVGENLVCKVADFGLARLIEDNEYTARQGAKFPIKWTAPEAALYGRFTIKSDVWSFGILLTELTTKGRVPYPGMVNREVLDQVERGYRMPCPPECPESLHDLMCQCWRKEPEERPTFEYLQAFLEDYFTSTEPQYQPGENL

[27] = target: Tyrosine-protein kinase Srms (Homo sapiens, UniProt Q9H3Y6); assay: Inhibition of human SRMS
Sequence of Tyrosine-protein kinase Srms (Q9H3Y6 whole entry): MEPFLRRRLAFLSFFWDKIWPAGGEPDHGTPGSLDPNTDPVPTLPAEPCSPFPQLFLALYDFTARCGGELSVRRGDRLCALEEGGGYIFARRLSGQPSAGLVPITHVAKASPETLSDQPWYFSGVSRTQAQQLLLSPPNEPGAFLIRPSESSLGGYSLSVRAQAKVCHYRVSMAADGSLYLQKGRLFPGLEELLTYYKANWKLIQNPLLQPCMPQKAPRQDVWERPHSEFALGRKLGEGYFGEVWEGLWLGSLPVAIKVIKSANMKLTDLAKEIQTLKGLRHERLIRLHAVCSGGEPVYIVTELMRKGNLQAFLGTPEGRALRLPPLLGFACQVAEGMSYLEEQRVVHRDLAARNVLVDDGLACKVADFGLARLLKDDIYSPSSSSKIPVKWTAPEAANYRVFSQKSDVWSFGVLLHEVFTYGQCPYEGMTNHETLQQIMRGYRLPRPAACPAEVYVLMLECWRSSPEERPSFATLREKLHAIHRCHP

[28] = target: Tyrosine-protein kinase CSK (Homo sapiens, UniProt P41240); assay: Inhibition of human CSK
[29] = target: T3, Tyrosine-protein kinase Tec (Homo sapiens, UniProt P42680); assay: Inhibition of human TEC
T3 sequence (P42680 whole entry): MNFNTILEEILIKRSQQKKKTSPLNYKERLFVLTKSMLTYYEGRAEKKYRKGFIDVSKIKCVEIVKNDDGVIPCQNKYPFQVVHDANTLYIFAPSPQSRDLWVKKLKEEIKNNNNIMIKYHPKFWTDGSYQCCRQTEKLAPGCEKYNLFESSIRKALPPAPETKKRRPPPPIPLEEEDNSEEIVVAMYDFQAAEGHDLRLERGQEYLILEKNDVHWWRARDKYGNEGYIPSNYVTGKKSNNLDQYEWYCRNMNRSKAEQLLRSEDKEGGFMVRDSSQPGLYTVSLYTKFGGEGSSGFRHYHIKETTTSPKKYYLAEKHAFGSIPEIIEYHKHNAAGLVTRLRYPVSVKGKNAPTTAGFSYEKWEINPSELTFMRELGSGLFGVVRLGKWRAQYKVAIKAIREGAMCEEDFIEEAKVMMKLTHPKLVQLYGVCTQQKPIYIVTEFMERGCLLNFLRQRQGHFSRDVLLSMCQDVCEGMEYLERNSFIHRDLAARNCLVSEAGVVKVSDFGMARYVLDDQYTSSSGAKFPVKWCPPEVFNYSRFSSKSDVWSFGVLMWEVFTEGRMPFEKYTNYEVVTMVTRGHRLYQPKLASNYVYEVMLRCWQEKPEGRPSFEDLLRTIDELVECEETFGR

[30] = target: Tyrosine-protein kinase Fgr (Homo sapiens, UniProt P09769); assay: Inhibition of human FGR
Sequence of Tyrosine-protein kinase Fgr (P09769 whole entry): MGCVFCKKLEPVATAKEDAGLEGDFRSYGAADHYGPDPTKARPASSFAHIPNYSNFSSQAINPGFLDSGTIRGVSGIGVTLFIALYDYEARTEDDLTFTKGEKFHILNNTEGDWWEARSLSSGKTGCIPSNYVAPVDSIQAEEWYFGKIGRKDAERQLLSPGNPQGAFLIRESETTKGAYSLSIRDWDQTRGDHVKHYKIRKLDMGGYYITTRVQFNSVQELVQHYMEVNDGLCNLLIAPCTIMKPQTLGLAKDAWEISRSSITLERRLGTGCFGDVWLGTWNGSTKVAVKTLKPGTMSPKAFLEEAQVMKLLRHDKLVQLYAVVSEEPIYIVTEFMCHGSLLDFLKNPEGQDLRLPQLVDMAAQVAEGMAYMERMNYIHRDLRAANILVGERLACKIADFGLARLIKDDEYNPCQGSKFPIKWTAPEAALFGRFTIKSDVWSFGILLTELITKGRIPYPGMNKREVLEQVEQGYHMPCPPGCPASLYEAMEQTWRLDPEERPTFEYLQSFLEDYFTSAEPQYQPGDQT

[31] = target: Tyrosine-protein kinase FRK (Homo sapiens, UniProt P42685); assay: Inhibition of human FRK
Sequence of Tyrosine-protein kinase FRK (P42685 whole entry): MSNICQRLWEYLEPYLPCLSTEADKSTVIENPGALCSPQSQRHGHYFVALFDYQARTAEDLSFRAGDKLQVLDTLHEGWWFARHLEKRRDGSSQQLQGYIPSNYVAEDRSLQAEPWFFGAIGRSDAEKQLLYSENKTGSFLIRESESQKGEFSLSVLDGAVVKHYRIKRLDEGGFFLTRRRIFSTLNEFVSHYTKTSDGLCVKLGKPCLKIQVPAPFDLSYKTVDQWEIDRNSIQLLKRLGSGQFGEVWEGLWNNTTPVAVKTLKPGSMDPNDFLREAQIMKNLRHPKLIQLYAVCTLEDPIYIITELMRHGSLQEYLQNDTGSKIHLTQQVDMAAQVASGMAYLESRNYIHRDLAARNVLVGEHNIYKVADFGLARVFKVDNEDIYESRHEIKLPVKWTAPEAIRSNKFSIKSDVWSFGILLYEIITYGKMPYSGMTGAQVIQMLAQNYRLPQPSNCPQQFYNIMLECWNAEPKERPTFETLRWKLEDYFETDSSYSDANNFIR

[32] = target: Tyrosine-protein kinase Fyn (Homo sapiens, UniProt P06241); assay: Inhibition of human FYN
Sequence of Tyrosine-protein kinase Fyn (P06241 whole entry): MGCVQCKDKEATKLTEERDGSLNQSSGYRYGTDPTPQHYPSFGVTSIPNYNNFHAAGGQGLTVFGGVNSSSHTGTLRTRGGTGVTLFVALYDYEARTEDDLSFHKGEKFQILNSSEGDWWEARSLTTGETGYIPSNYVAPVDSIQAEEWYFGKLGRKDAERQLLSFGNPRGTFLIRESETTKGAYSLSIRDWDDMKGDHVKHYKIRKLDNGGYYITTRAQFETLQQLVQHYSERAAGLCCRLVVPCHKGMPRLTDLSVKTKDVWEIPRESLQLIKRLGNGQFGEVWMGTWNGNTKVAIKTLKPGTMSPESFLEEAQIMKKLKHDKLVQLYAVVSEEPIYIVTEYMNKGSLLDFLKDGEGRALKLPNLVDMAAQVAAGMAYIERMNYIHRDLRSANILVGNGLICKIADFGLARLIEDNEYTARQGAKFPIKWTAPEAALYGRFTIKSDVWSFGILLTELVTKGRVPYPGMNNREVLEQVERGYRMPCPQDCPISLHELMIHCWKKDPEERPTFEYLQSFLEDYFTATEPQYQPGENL

[33] = target: Tyrosine-protein kinase Lck (Homo sapiens, UniProt P06239); assay: Inhibition of human LCK
Sequence of Tyrosine-protein kinase Lck (P06239 whole entry): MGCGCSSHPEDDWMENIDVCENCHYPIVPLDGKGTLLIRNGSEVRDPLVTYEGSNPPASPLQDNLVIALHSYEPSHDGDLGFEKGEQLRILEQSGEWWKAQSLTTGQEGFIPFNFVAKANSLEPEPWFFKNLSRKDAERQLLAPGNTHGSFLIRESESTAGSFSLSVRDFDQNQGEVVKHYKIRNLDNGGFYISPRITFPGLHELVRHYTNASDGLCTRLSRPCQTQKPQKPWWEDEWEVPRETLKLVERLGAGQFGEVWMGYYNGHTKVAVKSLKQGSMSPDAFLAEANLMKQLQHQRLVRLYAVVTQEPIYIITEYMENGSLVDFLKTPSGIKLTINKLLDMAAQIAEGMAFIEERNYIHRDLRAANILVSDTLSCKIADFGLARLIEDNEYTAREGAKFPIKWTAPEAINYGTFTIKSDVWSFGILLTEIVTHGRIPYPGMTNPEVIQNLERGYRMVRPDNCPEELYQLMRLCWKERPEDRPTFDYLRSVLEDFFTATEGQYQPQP

[34] = target: T4, Tyrosine-protein kinase ITK/TSK (Homo sapiens, UniProt Q08881); assay: Inhibition of human ITK
T4 sequence (Q08881 whole entry): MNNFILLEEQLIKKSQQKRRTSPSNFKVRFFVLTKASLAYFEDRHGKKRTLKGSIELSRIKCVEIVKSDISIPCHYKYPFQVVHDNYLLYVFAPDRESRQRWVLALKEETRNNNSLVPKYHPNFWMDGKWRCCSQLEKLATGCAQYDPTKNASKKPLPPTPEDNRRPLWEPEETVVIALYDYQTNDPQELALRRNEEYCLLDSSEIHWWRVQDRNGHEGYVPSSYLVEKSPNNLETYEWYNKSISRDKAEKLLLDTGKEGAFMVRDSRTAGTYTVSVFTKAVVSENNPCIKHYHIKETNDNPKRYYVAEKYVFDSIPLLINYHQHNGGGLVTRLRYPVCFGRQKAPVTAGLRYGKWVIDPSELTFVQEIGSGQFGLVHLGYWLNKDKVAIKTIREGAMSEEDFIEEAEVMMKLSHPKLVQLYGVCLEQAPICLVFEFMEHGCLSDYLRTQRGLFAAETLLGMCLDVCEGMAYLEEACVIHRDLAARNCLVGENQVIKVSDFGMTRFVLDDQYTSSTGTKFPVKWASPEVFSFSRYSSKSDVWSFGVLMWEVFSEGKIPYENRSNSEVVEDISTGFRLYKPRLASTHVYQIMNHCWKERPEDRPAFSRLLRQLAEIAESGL

[35] = target: Tyrosine-protein kinase Yes (Homo sapiens, UniProt P07947); assay: Inhibition of human YES1
Sequence of Tyrosine-protein kinase Yes (P07947 whole entry): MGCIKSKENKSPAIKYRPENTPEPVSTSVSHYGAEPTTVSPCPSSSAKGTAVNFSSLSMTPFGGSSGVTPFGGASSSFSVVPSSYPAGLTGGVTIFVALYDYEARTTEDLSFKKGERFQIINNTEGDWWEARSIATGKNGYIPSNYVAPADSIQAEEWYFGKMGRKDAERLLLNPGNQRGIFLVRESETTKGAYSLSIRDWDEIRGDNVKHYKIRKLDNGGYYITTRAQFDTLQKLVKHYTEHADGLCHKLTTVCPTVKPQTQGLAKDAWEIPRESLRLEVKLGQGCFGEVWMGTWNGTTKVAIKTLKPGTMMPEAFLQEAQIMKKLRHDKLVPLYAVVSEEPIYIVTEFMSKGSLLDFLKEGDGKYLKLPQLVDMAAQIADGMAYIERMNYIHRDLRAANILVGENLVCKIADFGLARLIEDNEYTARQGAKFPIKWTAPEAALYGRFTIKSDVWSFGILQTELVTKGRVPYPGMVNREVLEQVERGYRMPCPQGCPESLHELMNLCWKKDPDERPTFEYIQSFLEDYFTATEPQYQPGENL

[36] = target: Protein-tyrosine kinase 6 (Homo sapiens, UniProt Q13882); assay: Inhibition of human PTK6
[37] = target: Tyrosine-protein kinase Blk (Homo sapiens, UniProt P51451); assay: Inhibition of human BLK
Sequence of Tyrosine-protein kinase Blk (P51451 whole entry): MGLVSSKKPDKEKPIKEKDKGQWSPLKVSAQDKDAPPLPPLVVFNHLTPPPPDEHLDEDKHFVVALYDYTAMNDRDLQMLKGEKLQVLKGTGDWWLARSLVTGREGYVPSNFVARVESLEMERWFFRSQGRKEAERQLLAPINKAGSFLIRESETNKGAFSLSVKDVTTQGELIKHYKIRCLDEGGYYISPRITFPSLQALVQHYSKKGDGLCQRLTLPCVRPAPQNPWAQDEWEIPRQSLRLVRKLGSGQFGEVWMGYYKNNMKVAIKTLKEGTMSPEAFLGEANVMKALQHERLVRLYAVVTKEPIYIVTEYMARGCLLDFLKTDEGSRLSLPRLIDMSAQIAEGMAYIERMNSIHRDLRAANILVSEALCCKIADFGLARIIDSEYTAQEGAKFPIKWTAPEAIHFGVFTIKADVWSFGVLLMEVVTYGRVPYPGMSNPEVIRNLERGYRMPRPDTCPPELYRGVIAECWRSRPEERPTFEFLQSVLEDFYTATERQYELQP

AUC/dose [8] [µM·h]	Cmax [9] [nM]	clearance [10] [mL/min/kg]	AUC/dose [11] [µM·h]	Tmax [12] [h]	Cmax [13] [nM]	Vd [14] [L/kg]	clearance [15] [mL/min/kg]	Tmax [16] [h]	half-life [17] [h]	Vd [18] [L/kg]	bioavailability [19] [%]	half-life [20] [h]	bioavailability [21] [%]	SMILES	also measured
														CC1(C(=O)N2CCC[C@@H](c3nc(-c4ccc(C(=O)Nc5cc(C(F)(F)F)ccn5)cc4)c4c(N)nccn34)C2)COC1	half-life [1]: 1.2 h; Tmax [2]: 2.2 h; Vd [3]: 0.59 L/kg; clearance [4]: 6.3 mL/min/kg; AUC/dose [5]: 5.1 µM·h; bioavailability [6]: 84%; Cmax [7]: 4800 nM
20	400	18	1.6	2	3900	2.6	1.5	1	6.5	0.65	82	1.8	22	C[C@H]1CC[C@@H](c2nc(-c3ccc(C(=O)Nc4cc(C(F)(F)F)ccn4)cc3F)c3c(N)nccn23)CN1C(=O)C1CC1	
3	1000	24	1.1	1	780	1.7	11	0.5	4.1	2	60	1.4	77	CC1(C(=O)N2CCC[C@@H](c3nc(-c4ccc(C(=O)Nc5cc(C(F)(F)F)ccn5)cc4F)c4c(N)nccn34)C2)COC1	IC50 [22]: 81 nM; IC50 [23]: 184 nM; IC50 [24]: 32 nM; IC50 [25]: 20 nM; IC50 [26]: 116 nM; IC50 [27]: 24 nM; IC50 [28]: 253 nM; IC50 [29]: 69 nM; IC50 [30]: 55 nM; IC50 [31]: 187 nM; IC50 [32]: 322 nM; IC50 [33]: 22 nM; IC50 [34]: 921 nM; IC50 [35]: 43 nM; IC50 [36]: 63 nM; IC50 [37]: 42 nM

From ChEMBL document CHEMBL4715708, “Discovery of 8-Amino-imidazo[1,5-a]pyrazines as Reversible BTK Inhibitors for the Treatment of Rheumatoid Arthritis” (ACS Med Chem Lett, 2016)
